Test results: patent US20240124460A1, “METHODS AND COMPOSITIONS FOR TARGETED PROTEIN DEGRADATION” (Ranok Therapeutics (Hangzhou) Co. Ltd., priority 2020, published 2024)
Like-named read-outs stand apart in the source and are kept apart here.

Assays:
HSP90α protein = target: T1, HSP90α protein (Homo sapiens, UniProt P07900); experiment: HSP90α-binding FP (BODIPY) assay; conditions: FP competition with BODIPY-labeled RNK04010
T1 construct: purchased BPS Bioscience #50298
Summary of the method: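 Fluorescence polarization measured competition with N-terminal human HSP90α, using either FITC-geldanamycin or BODIPY-labelled triazolone RNK04010 as tracer (5 nM final each). Compounds were tested in 2.5-fold dilutions from 20 μM to 5.2 nM, with incubation at 25 °C for 120 min (FITC) or 300 min (BODIPY).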

ERBB2 = ERBB2 (HER2) flow cytometry protein degradation assay in BT-474 cells; assay type: cell-based, human; conditions: DC50, BT-474 cells, 24 hr
Method: To analyze total ERBB2 expression by flow cytometry, cells were detached with trypsin, washed, counted and treated with 10 μl/10^6 cells PE-conjugated, anti-ERBB2 monoclonal antibody (R&D Systems, #FAB1129P) for 30 min at 25° C. in dark. Cells were then washed, resuspended in 200 μl 1% paraformaldehyde and analyzed by flow cytometry.
% Inhibition=100−(D−B)/(S−B)*100%. • S: Fluorescence intensity of cells with antibody • D: Fluorescence intensity of compound-treated cells with antibody • B: Fluorescence intensity of cells without antibody

[1] = system: MV-4-11 human acute myeloid leukemia; experiment: MV-4-11 CCK-8 proliferation assay; assay type: cell-based; conditions: MV-4-11 cells, 72 hr
Summary of the method: (§1)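 CCK-8 absorbance read-out, with inhibition expressed against DMSO-treated cells after subtracting a cell-free DMSO medium blank. Compounds tested over a 3-fold dilution series spanning 20 μM to 1.02 nM; lines grown essentially as ATCC recommends.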

[2] = system: U-87 MG human glioblastoma; experiment: U87 MG CCK-8 proliferation assay; assay type: cell-based; conditions: U-87 MG cells, read-out: U87MG CCK-8
Summary of the method: as §1

| IC50 (HSP90α protein) [nM] | EC50 ([1]; Homo sapiens, MV4-11) [nM] | EC50 ([2]; Homo sapiens, U-87 MG, 72 h) [nM] | EC50 [1] [nM] | EC50 ([2]; 72 hr) [nM] | SMILES | ERBB2 degradation (ERBB2) |
| --- | --- | --- | --- | --- | --- | --- |
| 100 to 1000 | 100 to 1000 | > 1000 |  |  | CCOc1cc(N2CCC(C(=O)NCc3ccc(-n4c(O)nnc4-c4cc(CC)c(O)cc4O)cc3)CC2)ccc1Nc1ncc2c(n1)N(C)c1ccccc1C(=O)N2C [Compound 028, 1-(4-((5,11-dimethyl-6-oxo-6,11-dihydro-5H-benzo[e]pyrimido[5,4-b][1,4]diazepin-2-yl)amino)-3-ethoxyphenyl)-N-(4-(3-(5-ethyl-2,4-dihydroxyphenyl)-5-hydroxy-4H-1,2,4-triazol-4-yl)benzyl)piperidine-4-carboxamide] | B (DC50 = 100-1000 nM) |
| > 1000 | > 1000 | > 1000 |  |  | CCOc1cc(N2CCC(C(=O)NCc3ccc(-n4c(O)nnc4-c4cc(CC)c(O)cc4O)cc3C(F)(F)F)CC2)ccc1Nc1ncc2c(n1)N(C)c1ccccc1C(=O)N2C [Compound 031, 1-(4-((5,11-dimethyl-6-oxo-6,11-dihydro-5H-benzo[e]pyrimido[5,4-b][1,4]diazepin-2-yl)amino)-3-ethoxyphenyl)-N-(4-(3-(5-ethyl-2,4-dihydroxyphenyl)-5-hydroxy-4H-1,2,4-triazol-4-yl)-2-(trifluoromethyl)benzyl)piperidine-4-carboxamide] | C (DC50 > 1000 nM) |
| 100 to 1000 | < 100 | 100 to 1000 |  |  | CCOc1cc(N2CCC(C(=O)NCCc3ccc(CN4CCC(Cc5ccc(-n6c(C(=O)NCC(F)(F)F)nnc6-c6cc(C(C)C)c(O)cc6O)cc5)CC4)cc3)CC2)ccc1Nc1ncc2c(n1)N(C)c1ccccc1C(=O)N2C [Compound 035, N-(4-((4-(4-(3-(2,4-dihydroxy-5-isopropylphenyl)-5-((2,2,2-trifluoroethyl)carbamoyl)-4H-1,2,4-triazol-4-yl)benzyl)piperidin-1-yl)methyl)phenethyl)-1-(4-((5,11-dimethyl-6-oxo-6,11-dihydro-5H-benzo[e]pyrimido[5,4-b][1,4]diazepin-2-yl)amino)-3-ethoxyphenyl)piperidine-4-carboxamide] | B (DC50 = 100-1000 nM) |
|  | 100 to 1000 | 100 to 1000 |  |  | CCOc1cc(N2CCC(C(=O)NCc3ccc(-n4c(O)nnc4-c4cc(CC)c(O)cc4O)cc3F)CC2)ccc1Nc1ncc2c(n1)N(C)c1ccccc1C(=O)N2C [Compound 037, 1-(4-((5,11-dimethyl-6-oxo-6,11-dihydro-5H-benzo[e]pyrimido[5,4-b][1,4]diazepin-2-yl)amino)-3-ethoxyphenyl)-N-(4-(3-(5-ethyl-2,4-dihydroxyphenyl)-5-hydroxy-4H-1,2,4-triazol-4-yl)-2-fluorobenzyl)piperidine-4-carboxamide] | B (DC50 = 100-1000 nM) |
| 100 to 1000 | < 100 | > 1000 |  |  | CCOc1cc(N2CCC(C(=O)N3CCC(N4CCN(Cc5ccc(-n6c(O)nnc6-c6cc(C(C)C)c(O)cc6O)cc5C(F)(F)F)CC4)CC3)CC2)ccc1Nc1ncc2c(n1)N(C)c1ccccc1C(=O)N2C [Compound 038, 2-((4-(4-(4-(4-(4-(3-(2,4-dihydroxy-5-isopropylphenyl)-5-hydroxy-4H-1,2,4-triazol-4-yl)-2-(trifluoromethyl)benzyl)piperazin-1-yl)piperidine-1-carbonyl)piperidin-1-yl)-2-ethoxyphenyl)amino)-5,11-dimethyl-5,11-dihydro-6H-benzo[e]pyrimido[5,4-b][1,4]diazepin-6-one] | B (DC50 = 100-1000 nM) |
|  |  |  | 100 to 1000 | 100 to 1000 | CCCc1cc(-c2nnc(O)n2-c2ccc(CNC(=O)C3CCN(c4ccc(Nc5ncc6c(n5)N(C)c5ccccc5C(=O)N6C)c(OCC)c4)CC3)cc2)c(O)cc1O [Compound 039, N-(4-(3-(2,4-dihydroxy-5-propylphenyl)-5-hydroxy-4H-1,2,4-triazol-4-yl)benzyl)-1-(4-((5,11-dimethyl-6-oxo-6,11-dihydro-5H-benzo[e]pyrimido[5,4-b][1,4]diazepin-2-yl)amino)-3-ethoxyphenyl)piperidine-4-carboxamide] | B (DC50 = 100-1000 nM) |
|  | < 100 | 100 to 1000 |  |  | CCOc1cc(N2CCC(C(=O)NCc3ccc(CN4CCC(Cc5ccc(-n6c(C(=O)NC(C)C)nnc6-c6cc(C(C)C)c(O)cc6O)cc5)CC4)cc3)CC2)ccc1Nc1ncc2c(n1)N(C)c1ccccc1C(=O)N2C [Compound 056, N-(4-((4-(4-(3-(2,4-dihydroxy-5-isopropylphenyl)-5-(isopropylcarbamoyl)-4H-1,2,4-triazol-4-yl)benzyl)piperidin-1-yl)methyl)benzyl)-1-(4-((5,11-dimethyl-6-oxo-6,11-dihydro-5H-benzo[e]pyrimido[5,4-b][1,4]diazepin-2-yl)amino)-3-ethoxyphenyl)piperidine-4-carboxamide] | B (DC50 = 100-1000 nM) |
| 100 to 1000 | < 100 | 100 to 1000 |  |  | CCOc1cc(N2CCC(C(=O)N3CCC(Cc4ccc(CN(C)Cc5ccc(-n6c(C(=O)NCC(F)(F)F)nnc6-c6cc(C(C)C)c(O)cc6O)cc5)cn4)CC3)CC2)ccc1Nc1ncc2c(n1)N(C)c1ccccc1C(=O)N2C [Compound 057, 5-(2,4-dihydroxy-5-isopropylphenyl)-4-(4-((((6-((1-(1-(4-((5,11-dimethyl-6-oxo-6,11-dihydro-5H-benzo[e]pyrimido[5,4-b][1,4]diazepin-2-yl)amino)-3-ethoxyphenyl)piperidine-4-carbonyl)piperidin-4-yl)methyl)pyridin-3-yl)methyl)(methyl)amino)methyl)phenyl)-N-(2,2,2-trifluoroethyl)-4H-1,2,4-triazole-3-carboxamide] | B (DC50 = 100-1000 nM) |
| > 1000 | > 1000 | > 1000 |  |  | CCOc1cc(N2CCC(C(=O)NCCOCCOc3ccc(Nc4ccc(-n5nc(C(F)(F)F)c6c5CC(C)(C)CC6=O)cc4C(N)=O)cc3)CC2)ccc1Nc1ncc2c(n1)N(C)c1ccccc1C(=O)N2C [Compound 065, N-(2-(2-(4-((2-carbamoyl-4-(6,6-dimethyl-4-oxo-3-(trifluoromethyl)-4,5,6,7-tetrahydro-1H-indazol-1-yl)phenyl)amino)phenoxy)ethoxy)ethyl)-1-(4-((5,11-dimethyl-6-oxo-6,11-dihydro-5H-benzo[e]pyrimido[5,4-b][1,4]diazepin-2-yl)amino)-3-ethoxyphenyl)piperidine-4-carboxamide] | C (DC50 > 1000 nM) |
| > 1000 | > 1000 | > 1000 |  |  | CCOc1cc(N2CCC(C(=O)N3CCC(CN4CCN(CCCOc5ccc(Nc6ccc(-n7nc(C(F)(F)F)c8c7CC(C)(C)CC8=O)cc6C(N)=O)cc5)CC4)CC3)CC2)ccc1Nc1ncc2c(n1)N(C)c1ccccc1C(=O)N2C [Compound 066] | C (DC50 > 1000 nM) |
| 100 to 1000 | < 100 | 100 to 1000 |  |  | CCOc1cc(N2CCC(C(=O)N3CCC(CN4CCN(Cc5ccc(-n6c(O)nnc6-c6cc(CC)c(O)cc6O)cc5)CC4)CC3)CC2)ccc1Nc1ncc2c(n1)N(S(C)(=O)=O)c1ccccc1C(=O)N2C [Compound 070, 2-((2-ethoxy-4-(4-(4-((4-(4-(3-(5-ethyl-2,4-dihydroxyphenyl)-5-hydroxy-4H-1,2,4-triazol-4-yl)benzyl)piperazin-1-yl)methyl)piperidine-1-carbonyl)piperidin-1-yl)phenyl)amino)-5-methyl-11-(methylsulfonyl)-5,11-dihydro-6H-benzo[e]pyrimido[5,4-b][1,4]diazepin-6-one] | B (DC50 = 100-1000 nM) |
| < 100 | < 100 | < 100 |  |  | CCOc1cc(N2CCC(C(=O)N3CCC(CN4CCN(Cc5ccc(-n6c(C(=O)NC7CC7)nnc6-c6cc(CC)c(O)cc6O)cc5)CC4)CC3)CC2)ccc1Nc1ncc2c(n1)N(S(C)(=O)=O)c1ccccc1C(=O)N2C [Compound 075, N-cyclopropyl-4-(4-((4-((1-(1-(3-ethoxy-4-((5-methyl-11-(methylsulfonyl)-6-oxo-6,11-dihydro-5H-benzo[e]pyrimido[5,4-b][1,4]diazepin-2-yl)amino)phenyl)piperidine-4-carbonyl)piperidin-4-yl)methyl)piperazin-1-yl)methyl)phenyl)-5-(5-ethyl-2,4-dihydroxyphenyl)-4H-1,2,4-triazole-3-carboxamide] | B (DC50 = 100-1000 nM) |
| < 100 | < 100 | < 100 |  |  | CCOc1cc(N2CCC(C(=O)N3CCC(CN4CCN(Cc5ccc(-n6c(C(=O)NC(C)C)nnc6-c6cc(CC)c(O)cc6O)cc5)CC4)CC3)CC2)ccc1Nc1ncc2c(n1)N(S(C)(=O)=O)c1ccccc1C(=O)N2C [Compound 098, 4-(4-((4-((1-(1-(3-ethoxy-4-((5-methyl-11-(methylsulfonyl)-6-oxo-6,11-dihydro-5H-benzo[e]pyrimido[5,4-b][1,4]diazepin-2-yl)amino)phenyl)piperidine-4-carbonyl)piperidin-4-yl)methyl)piperazin-1-yl)methyl)phenyl)-5-(5-ethyl-2,4-dihydroxyphenyl)-N-isopropyl-4H-1,2,4-triazole-3-carboxamide] | B (DC50 = 100-1000 nM) |
